Target: T1, S. pneumoniae SpxB (pyruvate oxidase) (Streptococcus pneumoniae, UniProt A0A0H2ZP58)
T1 construct: recombinant from E. coli Rosetta BL21(DE3)/pLysS, pHis-parallel vector, His tag apparently kept
Assay: H2O2 generation, peroxidase-coupled quinoneimine dye at […] nm
Type: biochemical
Settings: 0.2 mM pyruvate, 50 mM KH2PO4 pH 6, 0.2 mM FAD, 0.2 mM TPP, 0.5 to 2 mM Mg(II) or Mn(II), 37 °C

T1 sequence (A0A0H2ZP58 entry or part of it): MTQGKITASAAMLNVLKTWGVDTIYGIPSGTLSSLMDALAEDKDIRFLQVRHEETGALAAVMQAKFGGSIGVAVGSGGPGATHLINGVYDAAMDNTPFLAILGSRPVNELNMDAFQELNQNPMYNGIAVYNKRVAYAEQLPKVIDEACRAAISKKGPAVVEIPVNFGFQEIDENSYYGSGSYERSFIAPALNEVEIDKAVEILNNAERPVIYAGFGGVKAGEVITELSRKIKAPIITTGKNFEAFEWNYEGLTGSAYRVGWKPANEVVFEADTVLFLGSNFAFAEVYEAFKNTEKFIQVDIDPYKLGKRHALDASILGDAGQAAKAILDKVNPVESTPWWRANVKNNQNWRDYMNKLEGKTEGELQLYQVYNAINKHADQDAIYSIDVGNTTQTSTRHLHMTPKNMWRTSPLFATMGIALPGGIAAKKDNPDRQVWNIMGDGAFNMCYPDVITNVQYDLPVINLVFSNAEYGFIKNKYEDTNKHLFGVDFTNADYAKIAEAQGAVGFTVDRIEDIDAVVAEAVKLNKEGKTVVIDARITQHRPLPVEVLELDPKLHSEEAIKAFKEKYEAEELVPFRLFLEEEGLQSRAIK

CC(=O)C(=O)O [sodium pyruvate]
H2O2 generation, peroxidase-coupled quinoneimine dye at 550 nm: Quinoneimine dye formation was monitored in triplicate with the addition of sodium pyruvate

From publication PMC5214746, “Biological and Chemical Adaptation to Endogenous Hydrogen Peroxide Production in Streptococcus pneumoniae D39” (mSphere, 2017)
